ChEMBL document CHEMBL1201862, “PubChem BioAssay data set” (2004)
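Step 1: Grow cells in 96-well plates. Step 2: Expose to compound for 48 hours at 5 concentrations. Step 3: Interpolate endpoints linearly; if unreached, use highest concentration. GI50 = concentration required for 50% inhibition of growth.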 Activity calls are given as the source filed them. Cut-off read from the data, not from the text of the source: active = GI50 up to about 1.1 µM and inactive = higher.

Key:
Experiment in all cases: NCI tumour cell line growth inhibition, 48 h
[1] = tested on: MCF7
[2] = tested on: OVCAR-4
[3] = tested on: 786-0
[4] = tested on: UACC-257
[5] = tested on: CCRF-CEM
[6] = tested on: IGROV-1
[7] = tested on: HOP-92
[8] = tested on: NCI-H522
[9] = tested on: SNB-19
[10] = tested on: ACHN
[11] = tested on: COLO 205
[12] = tested on: OVCAR-3
[13] = tested on: MDA-MB-435
[14] = tested on: HCC 2998
[15] = tested on: M14
[16] = tested on: RPMI-8226
[17] = tested on: HT-29
[18] = tested on: SK-MEL-2
[19] = tested on: HCT-116
[20] = tested on: OVCAR-5

Structure (SMILES)	GI50 [1]	GI50 [2]	GI50 [3]	GI50 [4]	GI50 [5]	GI50 [6]	GI50 [7]	GI50 [8]	GI50 [9]	GI50 [10]	GI50 [11]	GI50 [12]	GI50 [13]	GI50 [14]	GI50 [15]	GI50 [16]	GI50 [17]	GI50 [18]	GI50 [19]	GI50 [20]
COc1cc(OC2OC(COC(=O)c3cc(O)c(O)c(O)c3)C(O)C(O)C2O)ccc1O (configuration not stated)	53.8 µM (inactive)	55.3 µM (inactive)	> 100 µM (inactive)	> 100 µM (inactive)	42.2 µM (inactive)	> 100 µM (inactive)	32.7 µM (inactive)	48 µM (inactive)	> 100 µM (inactive)	55.1 µM (inactive)	> 100 µM (inactive)	84.1 µM (inactive)	24.4 µM (inactive)	> 100 µM (inactive)	90.8 µM (inactive)	> 100 µM (inactive)	70.5 µM (inactive)	> 100 µM (inactive)	> 100 µM (inactive)	> 100 µM (inactive)
CC1=NN(c2nc(N)nc(CN3CCOCC3)n2)C(C)(C)C1	> 100 µM (inactive)	20.5 µM (inactive)	15.2 µM (inactive)	> 100 µM (inactive)	30.1 µM (inactive)	16.9 µM (inactive)	33.2 µM (inactive)	14 µM (inactive)	> 100 µM (inactive)	31.8 µM (inactive)	60.4 µM (inactive)	> 100 µM (inactive)	> 100 µM (inactive)	> 100 µM (inactive)	> 100 µM (inactive)	> 100 µM (inactive)	> 100 µM (inactive)	> 100 µM (inactive)	> 100 µM (inactive)	> 100 µM (inactive)
CNC(=S)NN=C1NCCCCN1	> 100 µM (inactive)	> 100 µM (inactive)	> 100 µM (inactive)	> 100 µM (inactive)	> 100 µM (inactive)	> 100 µM (inactive)	> 100 µM (inactive)	> 100 µM (inactive)	> 100 µM (inactive)	> 100 µM (inactive)	> 100 µM (inactive)	> 100 µM (inactive)	> 100 µM (inactive)	> 100 µM (inactive)	> 100 µM (inactive)	> 100 µM (inactive)	> 100 µM (inactive)	> 100 µM (inactive)	> 100 µM (inactive)	> 100 µM (inactive)
Ic1cccc(/C=C/CN2CCN(CCOC(c3ccccc3)c3ccccc3)CC2)c1	14.6 µM (inactive)	17.5 µM (inactive)	15.7 µM (inactive)	15.7 µM (inactive)	6.5 µM (inactive)	19.7 µM (inactive)	14.4 µM (inactive)	16.1 µM (inactive)	16.3 µM (inactive)	44.6 µM (inactive)	8.51 µM (inactive)	16.7 µM (inactive)	14.4 µM (inactive)	6.97 µM (inactive)	14.6 µM (inactive)	3.01 µM (inactive)	6.47 µM (inactive)	17.7 µM (inactive)	12.6 µM (inactive)	16.7 µM (inactive)
OC1C2[C@@H](O)CCCN2C[C@@H](O)[C@H]1O (some centres not stated)	> 100 µM (inactive)	> 100 µM (inactive)	> 100 µM (inactive)	> 100 µM (inactive)	> 100 µM (inactive)	> 100 µM (inactive)	> 100 µM (inactive)	71.1 µM (inactive)	> 100 µM (inactive)	> 100 µM (inactive)	> 100 µM (inactive)	> 100 µM (inactive)	> 100 µM (inactive)	> 100 µM (inactive)	> 100 µM (inactive)	> 100 µM (inactive)	> 100 µM (inactive)	> 100 µM (inactive)	> 100 µM (inactive)	> 100 µM (inactive)
COC(=O)NC1C(C)OC(OC2C/C=C(/C)C3C=CC4C(OC5CC(OC6CCC(OC7CC(O)C(OC8CCC(O)C(C)O8)C(C)O7)C(C)O6)C(OC(C)=O)C(C)O5)C(C)CC(C)C4C3(C)/C(O)=C3/C(=O)OC4(CC(C=O)=CC(O)C4/C=C\2C)C3=O)CC1(C)[N+](=O)[O-] (configuration not stated)	0.94 µM (active)	1.82 µM (inactive)	0.861 µM (active)	0.724 µM (active)	0.178 µM (active)	3.44 µM (inactive)	1.06 µM (active)	0.824 µM (active)	0.69 µM (active)	1.02 µM (active)	1.1 µM (active)	0.971 µM (active)	0.382 µM (active)	0.951 µM (active)	1.07 µM (active)	0.957 µM (active)	1.1 µM (active)	0.475 µM (active)	0.69 µM (active)	1.93 µM (inactive)
COC(=O)[C@]1(c2cc3ccccc3n2S(=O)(=O)c2ccccc2)CC2CCC1NC2 (some centres not stated)	13.2 µM (inactive)	16.4 µM (inactive)	14.3 µM (inactive)	15.8 µM (inactive)	16.1 µM (inactive)	14 µM (inactive)	9.25 µM (inactive)	14.3 µM (inactive)	14.8 µM (inactive)	21.7 µM (inactive)	14.4 µM (inactive)	17 µM (inactive)	14.2 µM (inactive)	9.38 µM (inactive)	14.2 µM (inactive)	6.65 µM (inactive)	12.4 µM (inactive)	16.7 µM (inactive)	13.7 µM (inactive)	16.1 µM (inactive)
NC1=CN(CCCO)C2=N/C(=C\c3ccco3)C(=O)N12	> 100 µM (inactive)	> 100 µM (inactive)	> 100 µM (inactive)	48.9 µM (inactive)	> 100 µM (inactive)	> 100 µM (inactive)	> 100 µM (inactive)	> 100 µM (inactive)	> 100 µM (inactive)	> 100 µM (inactive)	> 100 µM (inactive)	> 100 µM (inactive)	> 100 µM (inactive)	> 100 µM (inactive)	> 100 µM (inactive)	> 100 µM (inactive)	> 100 µM (inactive)	> 100 µM (inactive)	> 100 µM (inactive)	> 100 µM (inactive)
CC(=O)OC1CC(n2cc(F)c(=O)[nH]c2=O)OC1CO (configuration not stated)	0.22 µM (active)	59.8 µM (inactive)	0.494 µM (active)	49.1 µM (inactive)	0.117 µM (active)	> 61.7 µM (inactive)	1.49 µM (inactive)	2.15 µM (inactive)	2.72 µM (inactive)	0.0585 µM (active)	8.75 µM (inactive)	13.5 µM (inactive)	15.7 µM (inactive)	< 0.0279 µM (active)	2.16 µM (inactive)	21.9 µM (inactive)	19.9 µM (inactive)	> 28.8 µM (inactive)	2.51 µM (inactive)	> 46.7 µM (inactive)
C[C@H](CCC(=O)O)[C@H]1CC[C@H]2[C@@H]3[C@H](O)C[C@@H]4C[C@H](O)CC[C@]4(C)[C@H]3CC[C@]12C [CHENODIOL]	30.8 µM (inactive)	51.9 µM (inactive)	36.3 µM (inactive)	41.8 µM (inactive)	33.1 µM (inactive)	27 µM (inactive)	30.3 µM (inactive)	25.5 µM (inactive)	43.8 µM (inactive)	46.8 µM (inactive)	22.8 µM (inactive)	–	37 µM (inactive)	28.9 µM (inactive)	27.7 µM (inactive)	22.6 µM (inactive)	24.3 µM (inactive)	20 µM (inactive)	33.8 µM (inactive)	52.6 µM (inactive)
O=C(Nc1sccc1S(=O)(=O)c1ccc(Cl)cc1)c1ccc(Cl)cc1	99.8 µM (inactive)	25.6 µM (inactive)	52.7 µM (inactive)	> 100 µM (inactive)	> 100 µM (inactive)	> 100 µM (inactive)	73.1 µM (inactive)	> 100 µM (inactive)	44.2 µM (inactive)	99.1 µM (inactive)	> 100 µM (inactive)	> 100 µM (inactive)	> 100 µM (inactive)	> 100 µM (inactive)	> 100 µM (inactive)	> 100 µM (inactive)	> 100 µM (inactive)	59.8 µM (inactive)	> 100 µM (inactive)	> 100 µM (inactive)
N=C(N)NC(=N)Nc1ccc(S(N)(=O)=O)cc1	> 100 µM (inactive)	> 100 µM (inactive)	> 100 µM (inactive)	> 100 µM (inactive)	> 100 µM (inactive)	> 100 µM (inactive)	> 100 µM (inactive)	> 100 µM (inactive)	> 100 µM (inactive)	> 100 µM (inactive)	> 100 µM (inactive)	> 100 µM (inactive)	> 100 µM (inactive)	6.27 µM (inactive)	> 100 µM (inactive)	> 100 µM (inactive)	> 100 µM (inactive)	> 100 µM (inactive)	> 100 µM (inactive)	> 100 µM (inactive)
CC1(C)OC2C(O)C(CO)OC2(C(F)F)O1 (configuration not stated)	> 100 µM (inactive)	> 100 µM (inactive)	> 100 µM (inactive)	> 100 µM (inactive)	> 100 µM (inactive)	> 100 µM (inactive)	> 100 µM (inactive)	> 100 µM (inactive)	> 47.1 µM (inactive)	–	> 100 µM (inactive)	> 100 µM (inactive)	> 63.5 µM (inactive)	> 100 µM (inactive)	> 100 µM (inactive)	> 100 µM (inactive)	> 100 µM (inactive)	> 100 µM (inactive)	> 100 µM (inactive)	> 100 µM (inactive)
C[N+](C)(C)CC(=O)N/N=C(\Cc1nc2ccc([N+](=O)[O-])cc2nc1O)C(=O)Nc1nc2ccc([N+](=O)[O-])cc2s1	29.4 µM (inactive)	30 µM (inactive)	93.8 µM (inactive)	> 100 µM (inactive)	40.9 µM (inactive)	23.5 µM (inactive)	29 µM (inactive)	13.3 µM (inactive)	–	52.2 µM (inactive)	48.8 µM (inactive)	31.8 µM (inactive)	85.1 µM (inactive)	36.9 µM (inactive)	55.1 µM (inactive)	34.5 µM (inactive)	45.6 µM (inactive)	28.1 µM (inactive)	51.9 µM (inactive)	> 100 µM (inactive)
